ChEMBL document CHEMBL4819150, “The structural simplification of lysergic acid as a natural lead for synthesizing novel anti-Alzheimer agents” (2021)
Active and inactive are the calls of the source. No cut-off for these calls is given here.

Assays:
PC-12 [1] = test: Neuroprotective activity against rat PC12 cells under glucose and oxygen-deprived condition assessed as increase in cell viability at 1 uM relative to control; type: functional, cell-based
SIM-A9 [2] = test: Neuroprotective activity against LPS-induced mouse SIM-A9 cells assessed as increase in cell viability at 1 uM relative to control; type: functional, cell-based
PC-12 [3] = test: […] activity in rat PC12 cells assessed as reduction in TCN-induced ER stress by measuring increase in cell viability at 1 uM relative to control; type: functional, cell-based
PC-12 [4] = test: Neuroprotective activity against rat PC12 cells under glucose and oxygen-deprived condition assessed as fold increase in cell viability at 1 uM relative to DPZ; type: functional
SIM-A9 [5] = test: Antiinflammatory activity in mouse microglial SIM-A9 cells assessed as reduction in LPS-stimulated nitric oxide release at 1 uM relative to control; type: functional, cell-based
PC-12 [6] = test: Neuroprotective activity against rat PC12 cells under glucose and oxygen-deprived condition assessed as increase in cell viability at 0.1 uM relative to control; type: functional, cell-based

Compound | Activity (PC-12 [1]) | Activity (SIM-A9 [2]) | Activity (PC-12 [3]) | fold change (FC) (PC-12 [4]) | Activity (SIM-A9 [5]) | Activity (PC-12 [6])
O=[N+]([O-])C(Cc1c[nH]c2cccc(Br)c12)Cc1c[nH]c2cccc(Br)c12 | Active | inactive | inactive | 10 |  | 
CN(C)Cc1c[nH]c2cccc(/C=C/C(N)=O)c12 | Active | Active | Active | 10 | Active | 
COC(=O)C[C@H]1c2cccc3[nH]cc(c23)C[C@@H]1[N+](=O)[O-] | Active |  | Active | 10 |  | 
COC(=O)/C=C/c1cccc2[nH]cc(CN(C)C)c12 | Active | Active | Active | 10 | Active | 
COc1cc2c(cc1OC)C(=O)C(CC1CCN(Cc3ccccc3)CC1)C2 (stereo unspecified) | Active | Active | Active |  | Active | Active
CN(C)Cc1c[nH]c2cccc(Br)c12 | Active |  | Active | 10 | Active | 
COCc1c[nH]c2cccc(/C=C/C(=O)OC)c12 | Active | Active | Active | 10 | Active | 
